Converted amounts (≈) assume the structure as drawn. Non-standard residues stand in square brackets, D forms with d. Residues, ends and D or L forms follow the SMILES beside them. ξ: configuration not given here. Ac6c = NC1(C(=O)O)CCCCC1; Ac5c = NC1(C(=O)O)CCCC1; ξDab = NCCC(N)C(=O)O; ξDap = NCC(N)C(=O)O
Key:
[1] = system: Klebsiella aerogenes; assay: Antibacterial activity against carbapenem-resistant Enterobacter aerogenes NCDC819-56 ATCC 13048 by two fold serial dilution method; format: functional
[2] = system: Acinetobacter baumannii; assay: Antibacterial activity against Acinetobacter baumannii B5W71 ATCC 15149 by two fold serial dilution method; format: functional
[3] = Antibacterial activity against Salmonella enterica LT2 Typhimurium ATCC 15277 by two fold serial dilution method; format: functional
[4] = system: Pseudomonas aeruginosa; assay: Antibacterial activity against Pseudomonas aeruginosa Boston 41501 ATCC 27853 by two fold serial dilution method; format: functional
[5] = Antibacterial activity against carbapenem-resistant Klebsiella pneumoniae K6 ATCC 700603 by two fold serial dilution method; format: functional, Klebsiella pneumoniae 700603
[6] = system: Enterococcus faecalis; assay: Antibacterial activity against Enterococcus faecalis Portland ATCC 29212 by two fold serial dilution method; format: functional; settings: ATCC 29212 Portland
[7] = system: Staphylococcus aureus; assay: Antibacterial activity against methicillin-resistant Staphylococcus aureus USA 300 NRS 384 by two fold serial dilution method; format: functional
[8] = Antibacterial activity against Clostridium difficile VIP 10463 ATCC 43255 by two fold serial dilution method; format: functional, Clostridium difficile ATCC 43255; settings: Clostridioides difficile
[9] = system: Staphylococcus aureus; assay: Antibacterial activity against Staphylococcus aureus Seattle 1945 ATCC 25923 by two fold serial dilution method; format: functional
[10] = system: Streptococcus pneumoniae; assay: Antibacterial activity against Streptococcus pneumoniae 262 ATCC 49619 by two fold serial dilution method; format: functional
[11] = system: Neisseria gonorrhoeae; assay: Antibacterial activity against Neisseria gonorrhoeae F-18 ATCC 49226 by two fold serial dilution method; format: functional
[12] = Antibacterial activity against Bacillus anthracis Ames NR-3838 by two fold serial dilution method; format: functional, Bacillus anthracis str. Ames
[13] = Antibacterial activity against Francisella tularensis SCHU S4 NR-643 by two fold serial dilution method; format: functional
[14] = Antibacterial activity against Yersinia pestis CO92 NR641 by two fold serial dilution method; format: functional
[15] = system: Burkholderia pseudomallei; assay: Antibacterial activity against Burkholderia pseudomallei AHS 1 NCTC 8016 by two fold serial dilution method; format: functional
[16] = system: Mycobacterium tuberculosis; assay: Antibacterial activity against Mycobacterium tuberculosis H37Ra ATCC 2517 by two fold serial dilution method; format: functional
[17] = system: CFPAC-1; assay: Antiproliferative activity against human CFPAC-1 cells after 72 hrs by Celltiter-Glo luminescent cell viability assay; format: functional, cell-based; settings: CFPAC-1, 72 h
[18] = system: MCF7; assay: Antiproliferative activity against human MCF7 cells after 72 hrs by Celltiter-Glo luminescent cell viability assay; format: functional, cell-based; settings: MCF7, 72 h
[19] = Antiproliferative activity against human IGROV1 cells after 72 hrs by Celltiter-Glo luminescent cell viability assay; format: functional, cell-based; settings: IGROV-1, 72 h
[20] = Antiproliferative activity against human COLO205 cells after 72 hrs by Celltiter-Glo luminescent cell viability assay; format: functional, cell-based; settings: COLO 205, 72 h
[21] = Antiproliferative activity against human DLD1 cells after 72 hrs by Celltiter-Glo luminescent cell viability assay; format: functional, cell-based; settings: DLD-1, 72 h
[22] = Antiproliferative activity against human UACC62 cells after 72 hrs by Celltiter-Glo luminescent cell viability assay; format: functional, cell-based; settings: UACC-62, 72 h
[23] = Antiproliferative activity against human MIAPaCa2 cells after 72 hrs by Celltiter-Glo luminescent cell viability assay; format: functional, cell-based; settings: MIA PaCa-2, 72 h
[24] = system: A498; assay: Antiproliferative activity against human A498 cells after 72 hrs by Celltiter-Glo luminescent cell viability assay; format: functional, cell-based; settings: A498, 72 h
[25] = Antiproliferative activity against human PC3 cells after 72 hrs by Celltiter-Glo luminescent cell viability assay; format: functional, cell-based; settings: PC-3, 72 h
[26] = system: A549; assay: Antiproliferative activity against human A549 cells after 72 hrs by Celltiter-Glo luminescent cell viability assay; format: functional, cell-based; settings: A549, 72 h
[27] = system: NCI-H69; assay: Antiproliferative activity against human NCI-H69 cells after 72 hrs by Celltiter-Glo luminescent cell viability assay; format: functional, cell-based; settings: NCI-H69, 72 h
[28] = system: RL; assay: Antiproliferative activity against human RL cells after 72 hrs by Celltiter-Glo luminescent cell viability assay; format: functional, cell-based

Row | Compound | MIC [1] [µM] | MIC [2] [µM] | MIC [3] [µM] | MIC [4] [µM] | MIC [5] [µM] | MIC [6] [µM] | MIC [7] [µM] | MIC [8] [µM] | MIC [9] [µM] | MIC [10] [µM] | MIC [11] [µM] | MIC [12] [µM] | MIC [13] [µM] | MIC [14] [µM] | MIC [15] [µM] | MIC [16] [µM] | IC50 [17] [µM] | IC50 [18] [µM] | IC50 [19] [µM] | IC50 [20] [µM] | further results
1 | CC(=O)NCC(=O)N[C@@H](Cc1ccccc1)C(=O)NC1(C(=O)NCC(=O)NC2(C(=O)N[C@@H](CCCNC(=N)N)C(=O)NC3(C(=O)NCC(=O)NC4(C(=O)N[C@@H](Cc5ccccc5)C(=O)NC5(C(=O)NCC(=O)NC6(C(=O)NCC(=O)N[C@@H](CCCNC(=N)N)C(=O)NC7(C(=O)N[C@@H](CCCNC(=N)N)C(=O)N[C@@H](CCCNC(=N)N)C(=O)N[C@@H](CCCNC(=N)N)C(=O)N[C@@H](CCCNC(=N)N)C(N)=O)CCCCC7)CCCCC6)CCCCC5)CCCCC4)CCCCC3)CCCCC2)CCCCC1 (Ac-GF[Ac6c]G[Ac6c]R[Ac6c]G[Ac6c]F[Ac6c]G[Ac6c]GR[Ac6c]RRRR-NH2) | 2.55 (≈ 6.25 µg/mL) | 2.55 (≈ 6.25 µg/mL) | 5.09 (≈ 12.5 µg/mL) | 2.55 (≈ 6.25 µg/mL) | 20.4 (≈ 49.9 µg/mL) | 1.28 (≈ 3.14 µg/mL) | 5.09 (≈ 12.5 µg/mL) | 2.55 (≈ 6.25 µg/mL) | 1.28 (≈ 3.14 µg/mL) | 10.2 (≈ 25 µg/mL) | 2.56 (≈ 6.28 µg/mL) | 2.56 (≈ 6.28 µg/mL) | 40.8 (≈ 99.9 µg/mL) | > 41 | > 41 | 40.8 (≈ 99.9 µg/mL) | 2.6 | 7 | 6 | 6.6 | IC50 [21]: 6.4 µM; IC50 [22]: 6.4 µM; IC50 [23]: 5 µM; IC50 [24]: 5.6 µM; IC50 [25]: 7.4 µM; IC50 [26]: 6.4 µM; IC50 [27]: 2 µM; IC50 [28]: 1.1 µM
2 | CC(=O)NCC(=O)N[C@@H](Cc1ccccc1)C(=O)NC1(C(=O)NCC(=O)NC2(C(=O)N[C@@H](CCCCN)C(=O)NC3(C(=O)NCC(=O)NC4(C(=O)N[C@@H](Cc5ccccc5)C(=O)NC5(C(=O)NCC(=O)NC6(C(=O)NCC(=O)N[C@@H](CCCCN)C(=O)NC7(C(=O)N[C@@H](CCCCN)C(=O)N[C@@H](CCCCN)C(=O)N[C@@H](CCCCN)C(=O)N[C@@H](CCCCN)C(N)=O)CCCC7)CCCCC6)CCCC5)CCCCC4)CCCC3)CCCCC2)CCCC1 (Ac-GF[Ac5c]G[Ac6c]K[Ac5c]G[Ac6c]F[Ac5c]G[Ac6c]GK[Ac5c]KKKK-NH2) | > 45 | > 45 | 11.2 (≈ 25 µg/mL) | 5.61 (≈ 12.5 µg/mL) | 44.8 (≈ 99.9 µg/mL) | > 45 | > 45 | 1.4 (≈ 3.12 µg/mL) | 44.5 (≈ 99.1 µg/mL) | > 45 | 11.2 (≈ 25 µg/mL) | 22.4 (≈ 49.9 µg/mL) | 22.4 (≈ 49.9 µg/mL) | > 45 | > 45 | 22.4 (≈ 49.9 µg/mL) | > 7.5 | > 7.5 | > 7.5 | > 7.5 | IC50 [21]: > 7.5 µM; IC50 [22]: > 7.5 µM; IC50 [23]: > 7.5 µM; IC50 [24]: > 7.5 µM; IC50 [25]: > 7.5 µM; IC50 [26]: > 7.5 µM; IC50 [27]: 5.9 µM; IC50 [28]: 6.7 µM
3 | CC(=O)NCC(=O)N[C@@H](Cc1ccccc1)C(=O)NC1(C(=O)NCC(=O)NC2(C(=O)NC(CCN)C(=O)NC3(C(=O)NCC(=O)NC4(C(=O)N[C@@H](Cc5ccccc5)C(=O)NC5(C(=O)NCC(=O)NC6(C(=O)NCC(=O)NC(CCN)C(=O)NC7(C(=O)NC(CCN)C(=O)NC(CCN)C(=O)NC(CCN)C(=O)NC(CCN)C(N)=O)CCCCC7)CCCCC6)CCCCC5)CCCCC4)CCCCC3)CCCCC2)CCCCC1 (some centres undefined) (Ac-GF[Ac6c]G[Ac6c][ξDab][Ac6c]G[Ac6c]F[Ac6c]G[Ac6c]G[ξDab][Ac6c][ξDab][ξDab][ξDab][ξDab]-NH2) | 2.97 (≈ 6.28 µg/mL) | 1.48 (≈ 3.13 µg/mL) | 1.48 (≈ 3.13 µg/mL) | 1.48 (≈ 3.13 µg/mL) | 2.96 (≈ 6.26 µg/mL) | 2.96 (≈ 6.26 µg/mL) | 5.91 (≈ 12.5 µg/mL) | 2.96 (≈ 6.26 µg/mL) | 2.96 (≈ 6.26 µg/mL) | 47.3 (≈ 100 µg/mL) | 1.48 (≈ 3.13 µg/mL) | 2.96 (≈ 6.26 µg/mL) | 23.6 (≈ 50 µg/mL) | > 47 | > 47 | 11.8 (≈ 25 µg/mL) | 2.7 | 3 | 2.3 | 6.4 | IC50 [21]: 2.6 µM; IC50 [22]: 1.9 µM; IC50 [23]: 4.4 µM; IC50 [24]: 2.1 µM; IC50 [25]: 6.5 µM; IC50 [26]: 2.4 µM; IC50 [27]: 1.5 µM; IC50 [28]: 1.7 µM
4 | CN(C)[C@@H]1C(O)=C(C(N)=O)C(=O)[C@@]2(O)C(O)=C3C(=O)c4c(O)cccc4[C@@](C)(O)[C@H]3C[C@@H]12 [TETRACYCLINE] | – | – | – | – | – | – | – | – | – | – | 2.25 (≈ 1 µg/mL) | – | – | – | 4.5 (≈ 2 µg/mL) | – | – | – | – | – | –
5 | CN[C@@H]1[C@H](O[C@H]2[C@H](O[C@H]3[C@H](O)[C@@H](O)[C@H](N=C(N)N)[C@@H](O)[C@@H]3N=C(N)N)O[C@@H](C)[C@]2(O)C=O)O[C@@H](CO)[C@H](O)[C@H]1O [STREPTOMYCIN] | – | – | – | – | – | – | – | – | – | – | – | – | – | – | – | 3.4 (≈ 1.98 µg/mL) | – | – | – | – | –
6 | CC(=O)NCC(=O)N[C@@H](Cc1ccccc1)C(=O)NC1(C(=O)NCC(=O)NC2(C(=O)NC(CN)C(=O)NC3(C(=O)NCC(=O)NC4(C(=O)N[C@@H](Cc5ccccc5)C(=O)NC5(C(=O)NCC(=O)NC6(C(=O)NCC(=O)NC(CN)C(=O)NC7(C(=O)NC(CN)C(=O)NC(CN)C(=O)NC(CN)C(=O)NC(CN)C(N)=O)CCCCC7)CCCCC6)CCCCC5)CCCCC4)CCCCC3)CCCCC2)CCCCC1 (some centres undefined) (Ac-GF[Ac6c]G[Ac6c][ξDap][Ac6c]G[Ac6c]F[Ac6c]G[Ac6c]G[ξDap][Ac6c][ξDap][ξDap][ξDap][ξDap]-NH2) | 1.54 (≈ 3.13 µg/mL) | > 48 | 24.6 (≈ 50 µg/mL) | 3.08 (≈ 6.26 µg/mL) | 3.08 (≈ 6.26 µg/mL) | 3.08 (≈ 6.26 µg/mL) | 6.16 (≈ 12.5 µg/mL) | 3.08 (≈ 6.26 µg/mL) | 6.16 (≈ 12.5 µg/mL) | 24.6 (≈ 50 µg/mL) | 6.16 (≈ 12.5 µg/mL) | 6.16 (≈ 12.5 µg/mL) | 49.2 (≈ 99.9 µg/mL) | > 49 | > 49 | 24.6 (≈ 50 µg/mL) | – | – | – | – | –
7 | CN[C@@H](CC(C)C)C(=O)N[C@H]1C(=O)N[C@@H](CC(N)=O)C(=O)N[C@H]2C(=O)N[C@H]3C(=O)N[C@H](C(=O)N[C@@H](C(=O)O)c4cc(O)cc(O)c4-c4cc3ccc4O)[C@H](O)c3ccc(c(Cl)c3)Oc3cc2cc(c3O[C@H]2O[C@@H](CO)[C@H](O)[C@@H](O)[C@@H]2O[C@@H]2C[C@@](C)(N)[C@@H](O)[C@@H](C)O2)Oc2ccc(cc2Cl)[C@H]1O | – | – | – | – | – | – | 2.7 (≈ 3.91 µg/mL) | 0.17 (≈ 0.246 µg/mL) | – | 1.99 (≈ 2.88 µg/mL) | – | – | – | – | – | – | – | – | – | – | –
8 | C[C@H]1c2cccc(O)c2C(=O)C2=C(O)[C@]3(O)C(=O)C(C(N)=O)=C(O)[C@@H](N(C)C)[C@@H]3[C@@H](O)[C@@H]21 [DOXYCYCLINE] | – | – | – | – | – | – | – | – | – | – | – | 0.87 (≈ 0.387 µg/mL) | 1.1 (≈ 0.489 µg/mL) | 1.1 (≈ 0.489 µg/mL) | – | – | – | – | – | – | –
